Experimental data published in paper PMC9372421 (Clinical and Translational Science, 2022).
Converted amounts (≈) assume the structure as drawn. “And” between values parts separate entries of the source, which are not always exact repeats. Equal entries are not always repeated. Where two headings read alike, the source gives them in different places. Values belong to the compound of their own block, whether it stands above or below them.

How the values were obtained:
[1] = target: T1, human NaV1.5 sodium channel (Homo sapiens, UniProt Q14524); format: cell-based
T1 sequence (Q14524 whole entry): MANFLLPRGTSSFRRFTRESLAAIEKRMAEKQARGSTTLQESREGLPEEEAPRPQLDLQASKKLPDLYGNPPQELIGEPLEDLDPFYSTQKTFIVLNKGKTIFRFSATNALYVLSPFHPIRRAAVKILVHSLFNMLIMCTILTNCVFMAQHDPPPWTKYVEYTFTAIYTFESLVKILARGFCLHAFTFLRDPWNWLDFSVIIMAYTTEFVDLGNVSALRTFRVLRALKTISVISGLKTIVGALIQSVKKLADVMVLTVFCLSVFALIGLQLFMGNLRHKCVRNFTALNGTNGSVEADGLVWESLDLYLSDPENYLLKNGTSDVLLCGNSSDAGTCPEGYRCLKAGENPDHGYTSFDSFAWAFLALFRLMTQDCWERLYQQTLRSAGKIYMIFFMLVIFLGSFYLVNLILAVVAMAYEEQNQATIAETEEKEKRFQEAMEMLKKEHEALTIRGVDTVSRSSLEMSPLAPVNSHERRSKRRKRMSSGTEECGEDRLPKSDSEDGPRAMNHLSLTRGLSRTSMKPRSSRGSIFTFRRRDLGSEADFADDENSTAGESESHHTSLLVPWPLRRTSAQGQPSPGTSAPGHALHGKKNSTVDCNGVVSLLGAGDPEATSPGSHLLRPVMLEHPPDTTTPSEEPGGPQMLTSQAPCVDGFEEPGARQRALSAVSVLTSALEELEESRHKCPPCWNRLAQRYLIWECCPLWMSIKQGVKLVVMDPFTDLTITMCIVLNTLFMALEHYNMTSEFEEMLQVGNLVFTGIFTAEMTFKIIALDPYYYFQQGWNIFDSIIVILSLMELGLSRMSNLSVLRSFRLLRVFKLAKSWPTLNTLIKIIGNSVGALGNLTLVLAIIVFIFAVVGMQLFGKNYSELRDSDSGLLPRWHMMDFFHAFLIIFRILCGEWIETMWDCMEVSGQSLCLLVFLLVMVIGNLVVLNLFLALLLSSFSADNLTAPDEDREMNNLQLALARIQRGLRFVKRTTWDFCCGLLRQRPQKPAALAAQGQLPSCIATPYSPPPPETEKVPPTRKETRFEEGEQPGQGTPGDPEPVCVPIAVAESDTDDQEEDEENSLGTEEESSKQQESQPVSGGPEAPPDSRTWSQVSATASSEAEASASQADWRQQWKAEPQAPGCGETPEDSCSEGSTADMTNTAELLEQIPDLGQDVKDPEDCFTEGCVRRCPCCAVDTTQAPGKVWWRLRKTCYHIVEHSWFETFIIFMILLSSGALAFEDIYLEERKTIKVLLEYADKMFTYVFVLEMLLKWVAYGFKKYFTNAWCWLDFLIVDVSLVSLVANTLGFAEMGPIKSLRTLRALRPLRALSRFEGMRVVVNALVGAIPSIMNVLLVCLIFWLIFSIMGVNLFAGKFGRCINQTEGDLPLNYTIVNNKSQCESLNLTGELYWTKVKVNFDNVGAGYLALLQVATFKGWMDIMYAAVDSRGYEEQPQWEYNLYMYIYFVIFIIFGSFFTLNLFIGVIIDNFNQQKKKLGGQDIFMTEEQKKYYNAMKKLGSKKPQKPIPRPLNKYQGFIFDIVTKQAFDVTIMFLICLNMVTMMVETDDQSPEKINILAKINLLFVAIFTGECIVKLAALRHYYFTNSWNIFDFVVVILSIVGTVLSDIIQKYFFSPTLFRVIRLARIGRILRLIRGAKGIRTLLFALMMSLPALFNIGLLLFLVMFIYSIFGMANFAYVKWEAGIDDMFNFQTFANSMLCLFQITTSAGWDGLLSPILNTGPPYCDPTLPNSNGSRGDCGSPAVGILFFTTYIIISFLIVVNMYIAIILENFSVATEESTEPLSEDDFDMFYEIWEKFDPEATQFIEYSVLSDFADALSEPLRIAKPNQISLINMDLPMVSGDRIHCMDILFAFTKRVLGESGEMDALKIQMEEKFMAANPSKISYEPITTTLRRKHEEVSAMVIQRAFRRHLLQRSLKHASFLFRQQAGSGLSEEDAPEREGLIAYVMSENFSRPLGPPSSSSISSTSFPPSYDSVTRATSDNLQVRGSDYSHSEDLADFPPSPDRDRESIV

[2] = target: T1, human NaV1.5 sodium channel
[3] = target: T1, human NaV1.5 sodium channel; assay: cell-based; settings: IC50 block of peak NaV1.5 current, HEK293, mean ± SEM
[4] = human, in vivo
[5] = tested on: hERG potassium channel; settings: cited from earlier work
[6] = lamotrigine containing regimens vs. no ASMs, cited from earlier work
[7] = lamotrigine 15 μg/ml; cited from earlier work
[8] = healthy subjects; cited from earlier work
[9] = cited from earlier work
[10] = target: T1, human NaV1.5 sodium channel; assay: cell-based; settings: IC50 block of late NaV1.5 current, mean ± SEM
[11] = human, in vivo; remark: listed apart in the source
[12] = tested on: canine purkinje fibers; settings: 30 μM; historical nonclinical assessment, data not reported; cited from earlier work
[13] = target: T1, human NaV1.5 sodium channel; remark: listed apart in the source
[14] = target: T1, human NaV1.5 sodium channel; remark: listed apart in the source
[15] = each drug at or near its IC50, V hold = −120 mV
[16] = each drug at or near its IC50, lamotrigine 280 µM, V hold = −120 mV
[17] = each drug at or near its IC50, lamotrigine 280 μM, mean ± SEM

SMILES: O=C(NCC1CCCCN1)c1cc(OCC(F)(F)F)ccc1OCC(F)(F)F (centres unmarked) [flecainide]
τon contribution by the slow component of the exponential [1, 15]: 45.1%
τon Percent Fast [1, 16]: 54.9%
Tonic block of NaV1.5, percent inhibition [2, 17]: 1.6 ± 1.2%

free concentration [4]: 6600 ng/mL
peak unbound concentration [4]: 3.15 to 24.5 µM
expected increase in PR interval (absolute values) (at 15 μg/ml, healthy subjects, outlier included): 18.15 ms
decrease in QRS interval (absolute values) (at 15 μg/ml, outlier included): 5.94 ms
expected PR prolongation relative to baseline (at ~20 μg/ml, highest peak concentrations reported in patients): 8.24 ms
increase in PR interval as change from baseline (healthy subjects, outlier included): up to 6.18 ms
mean PR interval (human, in vivo): 169 ms
slope in PR change from baseline per μg/ml of lamotrigine (outlier included): 0.412 ms/µg/mL
subjects with QRS interval >120 ms while on lamotrigine (outlier included): None
SMILES: Nc1nnc(-c2cccc(Cl)c2Cl)c(N)n1 [lamotrigine, Lamotrigine]
τon fast component, fold of mexiletine [1]: ≤ 1.6 fold
τon Percent Fast [1, 16]: > 92%
% block at 200th pulse ([1]; lamotrigine 25 µM, V hold = −120 mV): 25.5 ± 1.5% and 26%
τon fast component, fold faster than flecainide ([1]; lamotrigine versus flecainide): 8.4 fold
τon fast component, fold faster than quinidine ([1]; lamotrigine versus quinidine): 4.7 fold
IC50 ([3]; V hold = −95 mV, 0.1 Hz): 28.8 µM and 28.9 µM
IC50 ([3]; V hold = −120 mV): 280 µM
Tonic block of NaV1.5, percent inhibition [2, 17]: 26.8 ± 1.4%
Tonic block of NaV1.5, percent inhibition ([2]; lamotrigine 25 μM, mean ± SEM): 2.6 ± 2.1%
IC50 [5]: 229 µM
potency (IC50) to block the hERG potassium channel [5]: 58.6 µg/mL (≈ 229 µM)
SUDEP odds ratio (OR) ([6]; 95% CI: 0.31–0.97): 0.55
reduction in SUDEP risk [6]: 45%
percent of the maximum effect of flecainide [7]: ~ 29%
QTc interval, QRS duration, or blood pressure [8]: no increase
QTcF [8]: small reductions
heart rate and mean PR interval [8]: small increases
concentrations expected in over 95% of patients [9]: below 15 μg/ml
highest values for peak concentrations reported in patients [9]: ~ 20 μg/ml
IC50 ([10]; ramp epoch): 12.1 µM
IC50 ([10]; −15 mV epoch): 17.2 µM
safety reports relating to the circulatory system [11]: 1483 reports
safety reports relating to the circulatory system, share of all reports [11]: 0.021%
inhibition of action potential upstroke (dV/dt) [12]: < 10%
fold difference in potency at a depolarized potential [13]: 10 fold
recovery from block, rate fold faster than quinidine [14]: 1.4 fold
off-rate kinetics fold faster than flecainide ([14]; high concentration of lamotrigine): > 86 fold
τoff slow component, fold faster than quinidine's slow time constant ([14]; lamotrigine 25 μM): 2.4 fold
τoff Percent Fast ([14]; lamotrigine 25 µM, −120 mV): 58.0%
τoff Tau fast ([14]; lamotrigine 25 µM, −120 mV): 0.8 ± 0.1 s
τoff Tau slow ([14]; lamotrigine 25 µM, −120 mV): 15.6 ± 5.0 s

SMILES: Cc1cccc(C)c1OCC(C)N (centres unmarked) [mexiletine]
τon Percent Fast [1]: 92.9% and > 92%
Tonic block of NaV1.5, percent inhibition ([2]; human): 9.2 ± 1.5%
τoff Percent Fast [14]: 83.2%
τoff Tau fast [14]: 0.8 ± 0.03 s

SMILES: C=C[C@H]1C[N@@]2CC[C@H]1C[C@@H]2[C@@H](O)c1ccnc2ccc(OC)cc12 [quinidine]
τon contribution by the slow component of the exponential [1, 15]: 26.1%
Tonic block of NaV1.5, percent inhibition [2, 17]: 6.7 ± 1.2%
τoff Tau slow ([14]; each drug at or near its IC50, −120 mV): 37.7 ± 5.9 s
